# Literature values as cited in US6476012B2, “Estradiol-16α-carboxylic acid esters as locally active estrogens” (Yale University, priority 2001, dated 2002).
# Key:
# ERβ = ERβ (Homo sapiens, UniProt Q92731); settings: previously reported; cited from earlier work
# classical ER, ERα = molecular target: T1, classical ER, ERα (Homo sapiens, UniProt P03372); settings: previously reported; cited from earlier work
# T1 sequence (P03372 1-595): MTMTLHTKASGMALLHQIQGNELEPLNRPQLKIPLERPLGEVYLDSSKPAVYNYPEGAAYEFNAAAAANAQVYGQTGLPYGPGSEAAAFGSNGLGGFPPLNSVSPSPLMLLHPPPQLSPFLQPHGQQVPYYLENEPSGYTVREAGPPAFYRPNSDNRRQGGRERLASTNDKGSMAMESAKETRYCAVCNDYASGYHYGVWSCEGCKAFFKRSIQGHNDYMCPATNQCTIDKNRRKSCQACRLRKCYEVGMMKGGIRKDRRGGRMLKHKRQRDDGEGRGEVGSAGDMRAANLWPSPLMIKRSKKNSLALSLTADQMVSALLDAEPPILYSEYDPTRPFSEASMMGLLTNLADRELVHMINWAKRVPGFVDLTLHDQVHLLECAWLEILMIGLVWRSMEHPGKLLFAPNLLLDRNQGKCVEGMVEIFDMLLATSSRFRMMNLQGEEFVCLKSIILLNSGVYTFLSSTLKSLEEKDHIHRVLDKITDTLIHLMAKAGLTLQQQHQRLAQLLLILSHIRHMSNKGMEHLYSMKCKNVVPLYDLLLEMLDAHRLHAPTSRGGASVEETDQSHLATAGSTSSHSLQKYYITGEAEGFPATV
# Sequence of ERβ (Q92731 whole entry, species assumed): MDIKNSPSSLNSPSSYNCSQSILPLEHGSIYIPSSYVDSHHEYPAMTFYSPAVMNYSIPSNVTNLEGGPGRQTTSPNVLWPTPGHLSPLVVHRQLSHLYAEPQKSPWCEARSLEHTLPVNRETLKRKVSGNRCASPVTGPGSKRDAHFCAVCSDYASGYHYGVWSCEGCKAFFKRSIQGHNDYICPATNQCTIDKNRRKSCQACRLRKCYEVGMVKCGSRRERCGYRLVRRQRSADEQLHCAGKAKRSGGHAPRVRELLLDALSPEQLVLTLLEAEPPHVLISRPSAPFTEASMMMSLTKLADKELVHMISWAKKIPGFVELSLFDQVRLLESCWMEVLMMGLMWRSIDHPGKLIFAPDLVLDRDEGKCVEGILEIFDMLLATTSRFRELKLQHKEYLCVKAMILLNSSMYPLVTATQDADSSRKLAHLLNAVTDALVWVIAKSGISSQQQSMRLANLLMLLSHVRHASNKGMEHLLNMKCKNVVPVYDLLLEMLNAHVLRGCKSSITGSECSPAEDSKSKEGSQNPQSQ
structure (smiles),measurement,setting,value
C[C@]12CC[C@@H]3c4ccc(O)cc4CC[C@H]3[C@@H]1C[C@@H](I)[C@@H]2O [16α-iodoestradiol],binding to ERβ,ERβ,binds only poorly
same,binding to ERα,"classical ER, ERα",binds with high affinity
